Experimental findings from ChEMBL document CHEMBL1201862, “PubChem BioAssay data set” (2004) are described below.

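These data come from cells grown in 96-well plates and exposed to compound for 48 hours at five concentrations. The concentration for 50% growth inhibition is given as GI50.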 Calls of active or inactive are those of the source. No stated cut-off is given here; in the data, active = GI50 up to about 1.1 µM and inactive = higher. Where only a bound is given, the exact number is not on record here.

Usually GI50 stands for the concentration at which growth is held to half of that of the control.

Some test systems named below: Malme-3M; M14; U-251; MDA-MB-231; K562; OVCAR-5; KM12; SK-MEL-28; T47D; BT-549; SK-OV-3; EKVX; SN12C; MOLT-4; SF-295; MDA-MB-435; IGROV-1; SK-MEL-2; MCF7; HOP-62.
Holding throughout (test): DTP human tumour cell line panel, 48 h

Take `Clc1nc(Nc2nc3ccccc3[nH]2)nc(Cl)c1-c1ccccc1`: the GI50 in the test on Malme-3M was 19.1 µM (inactive); in the test on M14, 35.1 µM (inactive); with U-251, 15.9 µM (inactive); in the test on MDA-MB-231, 12.7 µM (inactive); with K562, 25.2 µM (inactive); with OVCAR-5, 28.3 µM (inactive). Also, the GI50 in the test with KM12 was 40.8 µM (inactive); in the test on SK-MEL-28 it was 11.7 µM (inactive); in the test on T47D, 40.7 µM (inactive); with BT-549 it was 16.5 µM (inactive); with SK-OV-3, 22.1 µM (inactive); in the test on EKVX it was 23.6 µM (inactive). For the same compound, the GI50 in the test with SN12C is 12.6 µM (inactive); in the test on MOLT-4 it was 76 µM (inactive); in the test with SF-295, 18 µM (inactive); in the test on MDA-MB-435, 29.3 µM (inactive); in the test on IGROV-1 it was 19 µM (inactive); in the test with SK-MEL-2, 23.3 µM (inactive).

For the compound `CC(C)/C=C1\CCC(CN(C)C)C1=O` (stereo not drawn), the GI50 with Malme-3M was 1.04 µM (active); with M14, 1.77 µM (inactive); in the test with U-251 it was 18.3 µM (inactive); in the test with MDA-MB-231, 1.42 µM (inactive); in the test with MCF7 it was 0.313 µM (active); in the test with K562, 0.893 µM (active). In addition, the GI50 in the test on OVCAR-5 was 8.41 µM (inactive); with KM12, 1.22 µM (inactive); in the test on SK-MEL-28, 2.21 µM (inactive); with HOP-62, 18.4 µM (inactive); with BT-549, 3.17 µM (inactive); in the test with SK-OV-3, 18.3 µM (inactive). Besides, the GI50 with EKVX was 7.1 µM (inactive); with SN12C it was 2.21 µM (inactive); with MOLT-4, 1.07 µM (active); in the test with SF-295 it was 16.6 µM (inactive); in the test with MDA-MB-435 it was 1.6 µM (inactive); in the test on IGROV-1, 7.05 µM (inactive). The GI50 with SK-MEL-2 was 7.05 µM (inactive).

For `N#CC(C#N)=Cn1c(=S)[nH]c2ccc([N+](=O)[O-])cc21`, the GI50 in the test on Malme-3M is > 100 µM (inactive); with M14, > 100 µM (inactive); in the test with U-251 it was > 100 µM (inactive); in the test on MDA-MB-231 it was 68.7 µM (inactive); in the test with MCF7, > 100 µM (inactive); with K562, > 100 µM (inactive). Also, the GI50 in the test with OVCAR-5, with KM12, in the test with SK-MEL-28, with HOP-62, with T47D and with SK-OV-3 was > 100 µM (inactive) in each case. For the same compound, the GI50 with EKVX, with SN12C, in the test on MOLT-4, in the test on SF-295, in the test on MDA-MB-435 and in the test on IGROV-1 was > 100 µM (inactive) in each case. In addition, the GI50 with SK-MEL-2 was > 100 µM (inactive).

Consider `CC12CCCC3(CC(=O)C(C)(C)C3C(=O)C1)C2` (stereo not drawn), for which the GI50 in the test on Malme-3M, in the test with M14, with U-251, in the test with MCF7, in the test on K562 and in the test with OVCAR-5 was > 100 µM (inactive) throughout. Also, the GI50 with KM12, with SK-MEL-28, in the test with HOP-62, in the test with T47D, with BT-549 and with SK-OV-3 was > 100 µM (inactive) each time. The GI50 in the test on EKVX, in the test on SN12C, in the test on MOLT-4, in the test with SF-295, in the test with MDA-MB-435 and in the test on IGROV-1 was > 100 µM (inactive) each time. In the test with SK-MEL-2, the GI50 is > 100 µM (inactive).

As to `COc1ccc(/C=C/C(=O)c2cc(OC)cc(OC)c2)cc1`, the GI50 is 13.6 µM (inactive) in the test on Malme-3M; 2.45 µM (inactive) with M14; 1.24 µM (inactive) in the test on U-251; 6.79 µM (inactive) in the test on MDA-MB-231; 0.219 µM (active) in the test with MCF7; 2.59 µM (inactive) in the test on K562. Moreover, the GI50 in the test on OVCAR-5 is 5.6 µM (inactive); in the test with KM12 it was 0.265 µM (active); in the test on SK-MEL-28, 5.97 µM (inactive); in the test on HOP-62 it was 3.78 µM (inactive); with T47D it was 3.11 µM (inactive); in the test with SK-OV-3 it was 6.71 µM (inactive). Also, the GI50 in the test on EKVX is 6.52 µM (inactive); with SN12C, 3.56 µM (inactive); with MOLT-4 it was 4.63 µM (inactive); with SF-295, 1.24 µM (inactive); in the test with MDA-MB-435, 1.54 µM (inactive); with IGROV-1, 4.57 µM (inactive). Also, in the test on SK-MEL-2, the GI50 was 18.7 µM (inactive).

With `Cc1cccc(/C=C2/C(=O)Nc3ccccc32)n1`, the GI50 in the test with Malme-3M was 16.3 µM (inactive); in the test with M14, 15.1 µM (inactive); in the test with U-251 it was 15.7 µM (inactive); in the test with MCF7, 5.79 µM (inactive); in the test on K562 it was 9.98 µM (inactive); with OVCAR-5, 11.9 µM (inactive). The GI50 was 13.2 µM (inactive) in the test with KM12; 24.2 µM (inactive) in the test with SK-MEL-28; 16.6 µM (inactive) in the test on HOP-62; 4.95 µM (inactive) with T47D; 21.4 µM (inactive) with BT-549; 18.1 µM (inactive) with SK-OV-3. Also, the GI50 with EKVX was 16.8 µM (inactive); in the test on MOLT-4, 7.5 µM (inactive); in the test on SF-295, 17.9 µM (inactive); in the test on MDA-MB-435 it was 16.7 µM (inactive); in the test on SK-MEL-2, 12.8 µM (inactive).

For the compound `c1ccc2c(c1)Nc1cccc3c1c-2nc1cc2ccccc2cc13`, the GI50 with Malme-3M was 1.69 µM (inactive); in the test with M14 it was 2.12 µM (inactive); in the test with U-251, 2.03 µM (inactive); in the test with MDA-MB-231 it was 1.1 µM (active); in the test on MCF7 it was 1.56 µM (inactive); with K562 it was 0.513 µM (active). Further, the GI50 was 1.82 µM (inactive) in the test with OVCAR-5; 1.62 µM (inactive) in the test on KM12; 1.74 µM (inactive) in the test with SK-MEL-28; 1.72 µM (inactive) in the test with HOP-62; 12.4 µM (inactive) in the test on BT-549; 1.64 µM (inactive) in the test on SK-OV-3. Besides, the GI50 in the test on EKVX was 1.55 µM (inactive); with SN12C, 1.69 µM (inactive); with SF-295, 1.6 µM (inactive); with MDA-MB-435, 2 µM (inactive); in the test with IGROV-1, 1.41 µM (inactive); in the test on SK-MEL-2, 1.48 µM (inactive).

Regarding `NC(=S)Nc1c(S(N)(=O)=O)cc(S(N)(=O)=O)c(Cl)c1Cl`, the GI50 with Malme-3M, in the test on M14, with U-251, with MDA-MB-231, with MCF7 and in the test with K562 was > 100 µM (inactive) throughout. Moreover, the GI50 with OVCAR-5, in the test with KM12, in the test with SK-MEL-28, with HOP-62, in the test on BT-549 and with SK-OV-3 was > 100 µM (inactive) throughout. Moreover, the GI50 with EKVX, in the test with SN12C, in the test on MOLT-4, in the test on SF-295, with MDA-MB-435 and in the test with IGROV-1 was > 100 µM (inactive) in each case. Besides, the GI50 in the test with SK-MEL-2 is > 100 µM (inactive).

For `CNc1cc(N)ccc1C(=O)N1CCC[C@H]1CO`, the GI50 in the test on M14, in the test with U-251, with MDA-MB-231, in the test on MCF7, in the test with K562 and in the test with OVCAR-5 was > 100 µM (inactive) in each case. Moreover, the GI50 in the test with KM12, with SK-MEL-28, in the test with HOP-62, with T47D, in the test on SK-OV-3 and in the test on EKVX was > 100 µM (inactive) throughout. Further, the GI50 in the test on SN12C, in the test on MOLT-4, with SF-295, in the test with MDA-MB-435, in the test on IGROV-1 and in the test with SK-MEL-2 was > 100 µM (inactive) throughout.

Take `C=C1CC[C@@H]2C13[C@@H]1[C@H](CC(=O)[C@@]23C)C1(C)C` (stereo partly drawn): the GI50 is > 100 µM (inactive) in the test on Malme-3M; > 100 µM (inactive) in the test with M14; > 100 µM (inactive) in the test on U-251; > 100 µM (inactive) in the test with MCF7; 81.5 µM (inactive) with K562; > 100 µM (inactive) with OVCAR-5. Also, the GI50 in the test with KM12 is > 100 µM (inactive); in the test with SK-MEL-28 it was > 100 µM (inactive); in the test on HOP-62 it was 24 µM (inactive); in the test on T47D, 55.8 µM (inactive); with BT-549, > 100 µM (inactive); in the test with SK-OV-3, > 100 µM (inactive). Also, the GI50 in the test on SN12C is > 100 µM (inactive); in the test on MOLT-4, > 100 µM (inactive); in the test on SF-295, 82 µM (inactive); in the test on MDA-MB-435, > 100 µM (inactive); in the test with IGROV-1, 55.7 µM (inactive); in the test on SK-MEL-2, > 100 µM (inactive).

On to `O=C(O)C1CCCCC1c1c2ccc(=O)c(O)c-2oc2c(O)c(O)ccc12` (stereo not drawn), for which the GI50 in the test with Malme-3M is 95.7 µM (inactive); with M14 it was 64.7 µM (inactive); in the test on U-251, 7.4 µM (inactive); in the test with MDA-MB-231, 18.6 µM (inactive); with MCF7, 14.2 µM (inactive); in the test with K562 it was 17.9 µM (inactive). Moreover, the GI50 was > 100 µM (inactive) in the test with OVCAR-5; 35.2 µM (inactive) with KM12; 69.5 µM (inactive) in the test on SK-MEL-28; 31.6 µM (inactive) in the test with HOP-62; 46.2 µM (inactive) in the test on T47D; 50.6 µM (inactive) with SK-OV-3. In addition, the GI50 was 38.1 µM (inactive) in the test on EKVX; 19.3 µM (inactive) with SN12C; 22.8 µM (inactive) in the test with MOLT-4; 23.7 µM (inactive) with SF-295; 16.7 µM (inactive) in the test with MDA-MB-435; 26.2 µM (inactive) in the test with IGROV-1. In the test with SK-MEL-2, the GI50 was > 100 µM (inactive).
